Experimental data as given in article PMC7397269, “Synthesis and Evaluation of New Coumarin Derivatives as Antioxidant, Antimicrobial, and Anti-Inflammatory Agents” (Molecules, 2020).
≈ marks a conversion by molar mass, not a printed value. Where “and” joins values, the source holds several entries; their conditions need not be identical. Equal values may be shown once. Read-outs that look alike come from different tables or passages of the source.

Columns and labels:
[1] = DPPH antioxidant assay (radical scavenging); type: biochemical; details: mean ± SD (n = 3)
Method in brief: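 Compounds, starting at 200 μg/mL, were mixed with 0.2 mM methanolic DPPH and incubated 30 min in the dark at 25 °C; absorbance was read at 515 nm. % inhibition is background-corrected against DPPH-only control, with IC50 from curve fit. Runs were triplicate (mean ± SD), with ascorbic acid as positive control.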

[2] = system: Bacillus subtilis ATCC 6633; assay: Agar well diffusion, B. subtilis; type: cell-based; details: ATCC6633, 100 μL of 10 mg/mL in DMSO, read-out: diameter of inhibition zone, BS
Method in brief: (§1)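 Values are mean inhibition zone diameters (mm) from triplicate plates incubated 24 h at 37 °C. Wells 10 mm wide held 100 μL of compound at 10 mg/mL in DMSO.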

[3] = system: Pseudomonas aeruginosa ATCC 27,953; assay: Agar well diffusion, P. aeruginosa; type: cell-based; details: ATCC27, 100 μL of 10 mg/mL in DMSO, read-out: diameter of inhibition zone, PA
Method in brief: as §1

[4] = system: Candida albicans NRRL Y-477; assay: Agar well diffusion, C. albicans; type: cell-based; details: NRRLY477, 100 μL of 10 mg/mL in DMSO, read-out: diameter of inhibition zone, CA
Method in brief: as §1

[5] = system: Bacillus subtilis ATCC 6633; assay: MIC, two-fold serial dilution, B. subtilis; type: cell-based; details: ATCC6633, read-out: Minimum inhibitory concentration, BS
Method in brief: (§2)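 Compounds with agar-well inhibition zones >16 mm were retested by two-fold broth dilution at final concentrations of 1000, 500, 250 and 125 μg/mL. Inocula of 1 × 10^8 CFU/mL (bacteria) or 1 × 10^6 CFU/mL (yeast), 0.1 mL per 5 mL. MIC = lowest concentration without growth after 24 h at 37 °C.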

[6] = system: Bacillus megaterium ATCC 9885; assay: MIC, two-fold serial dilution, B. megaterium; type: cell-based; details: Priestia megaterium, ATCC9885, read-out: Minimum inhibitory concentration, BM
Method in brief: as §2

[7] = system: Escherichia coli ATCC 2592; assay: MIC, two-fold serial dilution, E. coli; type: cell-based; details: ATCC2592, read-out: Minimum inhibitory concentration, EC
Method in brief: as §2

[8] = system: Pseudomonas aeruginosa ATCC 27,953; assay: MIC, two-fold serial dilution, P. aeruginosa; type: cell-based; details: ATCC27, read-out: Minimum inhibitory concentration, PA
Method in brief: as §2

[9] = system: Saccharomyces cerevisiae local isolate; assay: MIC, two-fold serial dilution, S. cerevisiae; type: cell-based; details: read-out: Minimum inhibitory concentration, SC
Method in brief: as §2

[10] = system: Candida albicans NRRL Y-477; assay: MIC, two-fold serial dilution, C. albicans; type: cell-based; details: NRRLY477, read-out: Minimum inhibitory concentration, CA
Method in brief: as §2

COX-2 = biological target: T1, COX-2 (Homo sapiens, UniProt P35354); assay: COX-2 inhibition, Cayman assay kit; type: biochemical; details: for IC50: mean of two determinations; for SI, selectivity index (COX-1/COX-2): ratio of COX-1/COX-2 IC50
T1 construct: purchased Cayman Chemical 701080
T1 sequence (P35354 18-604): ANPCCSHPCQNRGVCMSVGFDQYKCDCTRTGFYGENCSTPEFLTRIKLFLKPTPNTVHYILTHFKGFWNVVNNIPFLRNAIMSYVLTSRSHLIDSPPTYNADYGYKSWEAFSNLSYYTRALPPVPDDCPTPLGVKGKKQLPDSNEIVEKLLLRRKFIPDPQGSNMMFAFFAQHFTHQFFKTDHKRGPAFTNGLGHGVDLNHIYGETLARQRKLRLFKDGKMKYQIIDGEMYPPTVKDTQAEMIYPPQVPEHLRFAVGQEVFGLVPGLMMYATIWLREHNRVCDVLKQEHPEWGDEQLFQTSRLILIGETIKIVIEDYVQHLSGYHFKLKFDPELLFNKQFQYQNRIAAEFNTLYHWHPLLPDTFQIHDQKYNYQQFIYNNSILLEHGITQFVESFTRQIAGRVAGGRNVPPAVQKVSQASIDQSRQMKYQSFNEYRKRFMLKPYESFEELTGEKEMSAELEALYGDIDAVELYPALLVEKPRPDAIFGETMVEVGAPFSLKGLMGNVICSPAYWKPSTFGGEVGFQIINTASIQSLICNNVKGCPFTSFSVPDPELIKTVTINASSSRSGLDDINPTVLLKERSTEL

[11] = two-fold serial dilution, S. cerevisiae

Structure (SMILES) | IC50 [1] | zone of inhibition at 10000 µg/mL [2] | zone of inhibition at 10000 µg/mL [3] | zone of inhibition at 10000 µg/mL [4] | MIC [5] | MIC [6] | MIC [7] | MIC [8] | MIC [9] | MIC [10] | IC50 (COX-2) | SI, selectivity index (COX-1/COX-2) (COX-2) | MIC [9, 11]
Cc1ccc2oc(=O)c3c(c2c1)OC(N)=C(C#N)C3c1ccc([N+](=O)[O-])cc1 (racemic) [2a, (±)-2-Amino-9-methyl-4-(4-nitrophenyl)-5-oxo-4H,5H-pyrano[3,2-c]chromene-3-carbonitrile] | — ((—): inactive (IC50 > 200 μg/mL)) | 22 mm | 20 mm | 22 mm | 500 µg/mL (≈ 1330 µM) | 500 µg/mL (≈ 1330 µM) | 1000 µg/mL (≈ 2660 µM) | 500 µg/mL (≈ 1330 µM) | 500 µg/mL (≈ 1330 µM) | 500 µg/mL (≈ 1330 µM) | 2.74 µM | 42.58 | 
Cc1ccc2oc(=O)c3c(c2c1)OC(N)=C(C#N)C3c1ccco1 (racemic) [2b, (±)-2-Amino-4-(furan-2-yl)-9-methyl-5-oxo-4H,5H-pyrano[3,2-c]chromene-3-carbonitrile] | — ((—): inactive (IC50 > 200 μg/mL)) | 23 mm | 21 mm | 23 mm | 500 µg/mL (≈ 1560 µM) | 500 µg/mL (≈ 1560 µM) | 1000 µg/mL (≈ 3120 µM) | 1000 µg/mL (≈ 3120 µM) | 500 µg/mL (≈ 1560 µM) | 500 µg/mL (≈ 1560 µM) | 4.25 µM | 47.3 and 47.33 | 
COc1cc(/C=N/C2=C(C#N)C(c3ccc([N+](=O)[O-])cc3)c3c(c4cc(C)ccc4oc3=O)O2)cc(OC)c1OC (racemic) [5c, (±)-9-methyl-4-(4-nitrophenyl)-5-oxo-2-((3,4,5-trimethoxybenzylidene)amino)-4H,5H-pyrano[3,2-c]chromene-3-carbonitrile] | — ((—): inactive (IC50 > 200 μg/mL)) | 23 mm | 25 mm | 24 mm | 500 µg/mL (≈ 903 µM) | 500 µg/mL (≈ 903 µM) | 500 µg/mL (≈ 903 µM) | 500 µg/mL (≈ 903 µM) | 500 µg/mL (≈ 903 µM) | 500 µg/mL (≈ 903 µM) | 13.3 µM | 1.39 | 
Cc1ccc2oc(=O)c3c(c2c1)OC(/N=C/c1ccc(Cl)cc1Cl)=C(C#N)C3c1ccco1 (racemic) [5f, (±)-2-((2,4-dichlorobenzylidene)amino)-4-(furan-2-yl)-9-methyl-5-oxo-4H,5H-pyrano[3,2-c]chromene-3-carbonitrile] | — ((—): inactive (IC50 > 200 μg/mL)) | 23 mm | 21 mm | 22 mm | 500 µg/mL (≈ 1050 µM) | 1000 µg/mL (≈ 2100 µM) | 1000 µg/mL (≈ 2100 µM) | 1000 µg/mL (≈ 2100 µM) | 500 µg/mL (≈ 1050 µM) | 500 µg/mL (≈ 1050 µM) | 3.1 µM | 29.1 | 
NS(=O)(=O)c1ccc(NS(=O)(=O)c2c(O)c3cc(Cl)ccc3oc2=O)cc1 [7a, 6-Chloro-4-hydroxy-2-oxo-N-(4-sulfamoylphenyl)-2H-chromene-3-sulfonamide] | 93.12 ± 0.727 µg/mL (≈ 216 µM) | 29 mm | 27 mm | 26 mm | 250 µg/mL (≈ 580 µM) | 500 µg/mL (≈ 1160 µM) | 250 µg/mL (≈ 580 µM) | 250 µg/mL (≈ 580 µM) |  | 250 µg/mL (≈ 580 µM) | 17.4 µM | 13.75 | 250 µg/mL (≈ 580 µM)
O=c1oc2ccc(Cl)cc2c(O)c1S(=O)(=O)Nc1ccc(S(=O)(=O)Nc2ncccn2)cc1 [7c, 6-Chloro-4-hydroxy-2-oxo-N-(4-(N-(pyrimidin-2-yl)sulfamoyl)phenyl)-2H-chromene-3-sulfonamide] | 120.12 ± 4.629 µg/mL (≈ 236 µM) | 31 mm | 24 mm | 27 mm | 125 µg/mL (≈ 246 µM) | 125 µg/mL (≈ 246 µM) | 125 µg/mL (≈ 246 µM) | 250 µg/mL (≈ 491 µM) |  | 125 µg/mL (≈ 246 µM) | 19.9 µM | 3.12 | 125 µg/mL (≈ 246 µM)
Cc1ccc2oc(=O)c(S(=O)(=O)Nc3ccc(S(=O)(=O)Nc4ncccn4)cc3)c(O)c2c1 [7d, 4-Hydroxy-6-methyl-2-oxo-N-(4-(N-(pyrimidin-2-yl)sulfamoyl)phenyl)-2H-chromene-3-sulfonamide] | 112.19 ± 4.391 µg/mL (≈ 230 µM) | 31 mm | 25 mm | 30 mm | 125 µg/mL (≈ 256 µM) | 125 µg/mL (≈ 256 µM) | 125 µg/mL (≈ 256 µM) | 125 µg/mL (≈ 256 µM) |  | 125 µg/mL (≈ 256 µM) | 3.35 µM | 63.96 | 125 µg/mL (≈ 256 µM)
O=c1oc2ccc(Cl)cc2c(O)c1S(=O)(=O)Nc1ccc(S(=O)(=O)Nc2nccs2)cc1 [7e, 6-Chloro-4-hydroxy-2-oxo-N-(4-(N-(thiazol-2-yl)sulfamoyl)phenyl)-2H-chromene-3-sulfonamide] | 71.67 ± 3.231 µg/mL (≈ 139 µM) | 25 mm | 22 mm | 23 mm | 500 µg/mL (≈ 973 µM) | 500 µg/mL (≈ 973 µM) | 500 µg/mL (≈ 973 µM) | 1000 µg/mL (≈ 1950 µM) |  | 500 µg/mL (≈ 973 µM) | 16.1 µM | 1.84 | 1000 µg/mL (≈ 1950 µM)
Cc1ccc2oc(=O)c(S(=O)(=O)Nc3ccc(S(=O)(=O)Nc4nccs4)cc3)c(O)c2c1 [7f, 4-Hydroxy-6-methyl-2-oxo-N-(4-(N-(thiazol-2-yl)sulfamoyl)phenyl)-2H-chromene-3-sulfonamide] | 83.52 ± 1.849 µg/mL (≈ 169 µM) | 27 mm | 24 mm | 24 mm | 250 µg/mL (≈ 507 µM) | 250 µg/mL (≈ 507 µM) | 500 µg/mL (≈ 1010 µM) | 500 µg/mL (≈ 1010 µM) |  | 500 µg/mL (≈ 1010 µM) | 10.1 µM | 4.06 | 250 µg/mL (≈ 507 µM)
O=c1oc2ccc(Cl)cc2c(O)c1S(=O)(=O)Nc1ccccc1 [8a, 6-Chloro-4-hydroxy-2-oxo-N-phenyl-2H-chromene-3-sulfonamide] | 14.51 ± 1.827 µg/mL (≈ 41.2 µM) | 28 mm | 26 mm | 29 mm | 250 µg/mL (≈ 711 µM) | 250 µg/mL (≈ 711 µM) | 500 µg/mL (≈ 1420 µM) | 500 µg/mL (≈ 1420 µM) |  | 250 µg/mL (≈ 711 µM) | 8.5 µM | 2.94 | 250 µg/mL (≈ 711 µM)
Cc1ccc2oc(=O)c(S(=O)(=O)Nc3ccccc3)c(O)c2c1 [8b, 4-Hydroxy-6-methyl-2-oxo-N-phenyl-2H-chromene-3-sulfonamide] | 19.25 ± 4.171 µg/mL (≈ 58.1 µM) | 19 mm | 17 mm | 20 mm | 1000 µg/mL (≈ 3020 µM) | 1000 µg/mL (≈ 3020 µM) | 1000 µg/mL (≈ 3020 µM) | 1000 µg/mL (≈ 3020 µM) |  | 1000 µg/mL (≈ 3020 µM) | 13.4 µM | 1.94 | 1000 µg/mL (≈ 3020 µM)
O=c1oc2ccc(Cl)cc2c(O)c1S(=O)(=O)Nc1ccc(O)cc1 [8c, 6-Chloro-4-hydroxy-N-(4-hydroxyphenyl)-2-oxo-2H-chromene-3-sulfonamide] | 3.87 ± 0.409 µg/mL (≈ 10.5 µM) | 29 mm | 29 mm | 30 mm | 125 µg/mL (≈ 340 µM) | 250 µg/mL (≈ 680 µM) | 250 µg/mL (≈ 680 µM) | 250 µg/mL (≈ 680 µM) |  | 125 µg/mL (≈ 340 µM) | 11.9 µM | 1.3 and 1.29 | 125 µg/mL (≈ 340 µM)
